The values that follow come from the METLIN SMRT retention time set (Domingo-Almenara et al. 2019).

The series can be described thus: gradient 5% acetonitrile 3 min, to 50% in 2 min, to 85% in 15 min, held 3 min, 100 µL/min. The settings on record: column: Zorbax Extend-C18 2.1 x 50 mm; eluents: water / acetonitrile, 0.1% formic acid. The method, boiled down:
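Retention times of pure standards were taken from adduct peaks that were selected by computer and manually inspected. Over 3 months, mixtures of ~100 molecules were run by HPLC–quadrupole time-of-flight mass spectrometry in positive and negative ionization mode. The Zorbax Extend-C18 column (2.1 × 50 mm, 1.8 μm) ran at 100 μL/min in water and acetonitrile, each containing 0.1% formic acid, with 40 μL dead volume and 900 μL dwell volume.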
`CC(C)(C)c1ccc2c(c1)N(Cc1nc(-c3ccccc3Cl)no1)C(=O)CO2` had an RP-LC retention time of 1240 s.

Compound `CC(NC(=O)Cn1c(=O)c(=O)n(C)c2ncccc21)c1ccccc1` (stereo not drawn) registered an RP-LC retention time of 677 s.

In the case of `Cc1nn(C)cc1CN1CCCCC1CCn1cc(-c2ccccc2)nn1` (stereo not drawn), the RP-LC retention time came out at 564 s.

For `CCNc1cc(N2CCCC(CCC(=O)N3CCCN(c4ncccn4)CC3)C2)ncn1` (stereo not drawn), the RP-LC retention time was 608 s.

As for `CCn1cc(CCNC(=O)C(C)C)c2cccnc21`, the RP-LC retention time worked out at 612 s.

Compound `O=C(O)c1cnc(N2CCCCC2)nc1-c1ccccc1` showed an RP-LC retention time of 956 s.

On to `CCc1noc(-c2nc(-c3ccccc3F)no2)n1`, for which the RP-LC retention time came to 1010 s.

With `Cn1cc(-c2ccc3nnc(C(F)(F)c4ccc5ncccc5c4)n3n2)cn1`, the RP-LC retention time amounted to 694 s.

For the compound `CN(CC1CCOCC1)C(=O)c1ccc(Br)cc1`, the RP-LC retention time is 761 s.

`Cc1ccccc1CC(=O)N1CCC2(CC1)NC(=O)c1cc(F)ccc1N2C` displayed an RP-LC retention time of 787 s.

In the case of `COc1ccc(NC(=O)c2cc(C)n3nc(C)cc3n2)c(C)c1`, the RP-LC retention time came out at 1040 s.

In turn, `O=C(NCCn1c(-c2ccccc2)nc2cccnc21)Nc1ccc2c(c1)OCO2` returned an RP-LC retention time of 722 s.

`O=C(NCCc1nc2cccnc2n1-c1ccccc1)C1CCCCC1` had an RP-LC retention time of 730 s.

Consider `CCOc1ccc(NC(=O)NCc2nc(-c3ccc(OCC)cc3)oc2C)cc1`, for which the RP-LC retention time stood at 656 s.

`COc1cccc(OCC(O)CN2CCN(c3ccc(Cl)cc3)CC2)c1` (stereo not drawn) showed an RP-LC retention time of 724 s.

The compound `CCOC(=O)c1cc(S(=O)(=O)N2CCCC2C(=O)Nc2cccc(SC)c2)cn1C` (stereo not drawn) showed an RP-LC retention time of 995 s.

`CCN1C(=O)c2cccnc2Sc2cc(NC(=O)Cc3ccccc3Cl)ccc21`: the RP-LC retention time worked out at 856 s.

As for `Cc1cc(NCCCn2ccnc2)n2nc(C(F)(F)F)c(-c3ccccc3)c2n1`, the RP-LC retention time amounted to 591 s.

`COCCc1noc(C2CN(C(=O)c3cnc(C)cn3)C2)n1`: the RP-LC retention time turned out to be 636 s.

Compound `Cc1cc(-c2ccc(C(C)C)c(S(=O)(=O)N3CCN(c4ccccn4)CC3)c2)on1` registered an RP-LC retention time of 819 s.

`COc1ccc(Cl)cc1S(=O)(=O)NC1CCc2nn(C)c(=O)n2CC1` (stereo not drawn) showed an RP-LC retention time of 677 s.

Compound `CCC(=O)N(C1CCOCC1)C1CCN(S(=O)(=O)c2ccccc2CC)CC1` gave an RP-LC retention time of 908 s.

Regarding `CCOc1ccc(NC(=O)c2c(O)c3cccnc3n(-c3ccccc3)c2=O)cc1`, the RP-LC retention time was 1270 s.

`CC1Cc2ccccc2N1C(=O)c1ccc(=O)n(CCC(=O)N2CCCCCC2)n1` (stereo not drawn) yielded an RP-LC retention time of 814 s.

Turning to `Cc1noc(CNC(=O)c2cc(-c3cccs3)[nH]n2)n1`, the RP-LC retention time was determined as 641 s.

`CCc1cccc(C)c1NC(=O)CN1C(=O)NC2(CCCCC2)C1=O` showed an RP-LC retention time of 804 s.

As to `NC(=O)C1Cc2ccccc2N1C(=O)c1ccc([N+](=O)[O-])o1` (stereo not drawn), the RP-LC retention time amounted to 633 s.

As for `CCC1Oc2ccc(S(=O)(=O)N3CCC(C(=O)Nc4cccc(F)c4)CC3)cc2NC1=O` (stereo not drawn), the RP-LC retention time is 910 s.

`COc1cccc(-c2cc3c(=O)n(CC(O)c4ccccc4)ccn3n2)c1` (stereo not drawn) returned an RP-LC retention time of 860 s.

For the compound `CCOC(=O)c1cn(CC)c2cc(N3CCCC3)c(F)cc2c1=O`, the RP-LC retention time turned out to be 822 s.

`Cc1cc(C)n(Cc2ccc(C(=O)N3C[C@H]4C[C@H](C3)[C@H]3CCCC(=O)N3C4)o2)n1` yielded an RP-LC retention time of 630 s.

`CC(C)(C)C(=O)N1CCCC(c2ccnc(-c3ccccc3)n2)C1` (stereo not drawn) gave an RP-LC retention time of 1020 s.

As for `COc1cccc(NC(=O)c2c(O)c3cccnc3n(-c3ccccc3)c2=O)c1`, the RP-LC retention time came out at 1220 s.
